Data taken from patent US20240315991A1, “USES OF HNF4 ALPHA AGONISTS” (Sanford Burnham Prebys Medical Discovery Institute, priority 2023, published 2024).

Tests used:
HNF4α = molecular target: T1, HNF4α (Mus musculus, UniProt P49698); assay: HNF4α immunofluorescence of liver sections; format: in vivo; settings: C57BL/6 mice, HFD containing 4000 ppm NCT (approximately 400 mg/kg/d), oral, 10 weeks, vs HFD
T1 construct: from tissue; host or cells: liver of C57BL/6J mice
Description: NCT oral administration. Four-week-old male C57BL/6J (JAX cat #000664) mice were purchased from Jackson laboratory and were maintained in a 12 h light/dark cycle throughout the experiment. Prior to the experiments, mice were acclimated for 2 weeks. Six-week-old mice with similar body weights were randomized to a normal diet (NC), a high fat diet (HFD) (Research Diets, cat #D12492 60 kcal % fat) or HFD containing 4000 ppm NCT (HFD+NCT) (Research Diets, 60 kcal % fat+4000 ppm NCT), which was calculated to provide approximately 400 mg/kg/d NCT. HFD chow containing NCT was made with gray dye to distinguish it from regular HFD chow that had green dye. Mice for each treatment group were placed in separate cages. […] Body weight gain and food intake were measured every week for 10 weeks. […]
Immunofluorescence. […] Slides were mounted using fluorescence mounting medium and images were obtained at ×40 magnification using an Olympus IX71 fluorescence microscope. Fluorescence intensity of HNF4α-stained nuclei and VDAC stained mitochondria was calculated using MetaMorph TL software (version 7.6.5.0, Olympus). Fold change was calculated by normalizing to values from mice fed NC.
C57BL/6 mice were fed normal chow (NC), a high fat diet (HFD), or a high fat diet containing 4000 ppm NCT (HFD+NCT) for 10 weeks. […] The fold change was calculated vs. NC (NC, N=3, HFD and HFD+NCT, N=12). […]

cytochrome C mRNA = assay: RT-PCR of primary human hepatocytes, cytochrome C; format: cell-based; settings: 0 μM vs. each concentration of NCT, FIG. 3I
Description: (§1) Primary human hepatocytes. Experiments with primary human hepatocytes were performed by CN-Bio (Cambridge, UK). Briefly, primary human hepatocytes (PHHs), human Kupffer cells (HKs) and human stellate cells (HSCs) were seeded onto CN-Bio's PhysioMimix LC12 MPS culture plates at 6×10^5 cells for PHHs and 6×10^4 cells for HKs and HSCs in 1.6 ml of CN-Bio's HEP-lean media with 5% FCS. Throughout the experiment the cells were maintained at a flow rate of 1 μl/s. After 24 hours (Day 1) of seeding, the media was changed to HEP-lean media and the cells were incubated until day 4 to allow the cells to form microtissues. At day 4 post seeding, media was changed to HEP-fat media and treated with DMSO or NCT (5, 15, and 40 μM). Media was replaced on days 6 and 8. Cells were harvested on day 10 for RNA extraction and culture media was collected for ELISA analysis.
(§2) RT-PCR. […] Quantitative real time PCR (RT-PCR) analysis was performed using SYBR® Select Master Mix (Applied Biosystems) and an ABI 7900HT thermal cycler (Applied Biosystems, Thermo Fisher Scientific). Ct values were normalized to 18s rRNA and are expressed as fold change over samples from mice fed NC or cultured human hepatocytes without NCT.

PPARGC1A mRNA = assay: RT-PCR of primary human hepatocytes, PPARGC1A; format: cell-based; settings: HEP-fat media, NCT 5, 15, and 40 μM, FIG. 4F
Description: as §1, §2

TNFα mRNA [1] = assay: RT-PCR of primary human hepatocytes, TNFα; format: cell-based; settings: HEP-fat media, NCT 5, 15, and 40 μM, dose-responsive manner, FIG. 5F
Description: as §1, §2

TNFα mRNA [2] = assay: RT-PCR of mouse liver, TNFα; format: in vivo; settings: HFD+NCT vs HFD, FIG. 5B
Description: (§3) NCT oral administration. Four-week-old male C57BL/6J (JAX cat #000664) mice were purchased from Jackson laboratory and were maintained in a 12 h light/dark cycle throughout the experiment. Prior to the experiments, mice were acclimated for 2 weeks. Six-week-old mice with similar body weights were randomized to a normal diet (NC), a high fat diet (HFD) (Research Diets, cat #D12492 60 kcal % fat) or HFD containing 4000 ppm NCT (HFD+NCT) (Research Diets, 60 kcal % fat+4000 ppm NCT), which was calculated to provide approximately 400 mg/kg/d NCT. HFD chow containing NCT was made with gray dye to distinguish it from regular HFD chow that had green dye. Mice for each treatment group were placed in separate cages. Equal amounts of fresh chow were provided every week to all mice. Body weight gain and food intake were measured every week for 10 weeks. After 10 weeks of chow treatment, mice were sacrificed for analysis. […]
as §2

Sirt1 mRNA = assay: RT-PCR of primary human hepatocytes, Sirtuin1; format: cell-based; settings: HEP-fat media, NCT 5, 15, and 40 μM, FIG. 4G
Description: as §1, §2

PPARGC1A(PGC1a) = assay: Western blotting of liver, PPARGC1A(PGC1a); format: in vivo, mouse; settings: HFD+NCT vs HFD, FIGS. 4A-4C
Description: NCT oral administration. Four-week-old male C57BL/6J (JAX cat #000664) mice were purchased from Jackson laboratory and were maintained in a 12 h light/dark cycle throughout the experiment. Prior to the experiments, mice were acclimated for 2 weeks. Six-week-old mice with similar body weights were randomized to a normal diet (NC), a high fat diet (HFD) (Research Diets, cat #D12492 60 kcal % fat) or HFD containing 4000 ppm NCT (HFD+NCT) (Research Diets, 60 kcal % fat+4000 ppm NCT), which was calculated to provide approximately 400 mg/kg/d NCT. HFD chow containing NCT was made with gray dye to distinguish it from regular HFD chow that had green dye. Mice for each treatment group were placed in separate cages. Equal amounts of fresh chow were provided every week to all mice. Body weight gain and food intake were measured every week for 10 weeks. After 10 weeks of chow treatment, mice were sacrificed for analysis. All animal experiments were approved by the Institutional Animal Care and Use Committee (IACUC) of the Sanford Burnham Prebys Medical Discovery Institute in accordance with national regulations. Sample size was chosen based on the prior study of NCT delivered by IP injection.
Western blotting. Mouse liver extracts were prepared by incubation in RIPA buffer (Invitrogen) containing protease inhibitors (Calbiochem, SanDiego, CA). Protein was quantified by BCA assay (Thermo Scientific). […]

Sirt3 mRNA = assay: RT-PCR of mouse liver, Sirtuin3; format: in vivo; settings: HFD+NCT vs HFD, FIG. 4E
Description: as §3, §2

IL-6 mRNA = assay: RT-PCR of primary human hepatocytes, IL-6; format: cell-based; settings: HEP-fat media, NCT 5, 15, and 40 μM, FIG. 5E
Description: as §1, §2

T1 sequence (P49698 whole entry): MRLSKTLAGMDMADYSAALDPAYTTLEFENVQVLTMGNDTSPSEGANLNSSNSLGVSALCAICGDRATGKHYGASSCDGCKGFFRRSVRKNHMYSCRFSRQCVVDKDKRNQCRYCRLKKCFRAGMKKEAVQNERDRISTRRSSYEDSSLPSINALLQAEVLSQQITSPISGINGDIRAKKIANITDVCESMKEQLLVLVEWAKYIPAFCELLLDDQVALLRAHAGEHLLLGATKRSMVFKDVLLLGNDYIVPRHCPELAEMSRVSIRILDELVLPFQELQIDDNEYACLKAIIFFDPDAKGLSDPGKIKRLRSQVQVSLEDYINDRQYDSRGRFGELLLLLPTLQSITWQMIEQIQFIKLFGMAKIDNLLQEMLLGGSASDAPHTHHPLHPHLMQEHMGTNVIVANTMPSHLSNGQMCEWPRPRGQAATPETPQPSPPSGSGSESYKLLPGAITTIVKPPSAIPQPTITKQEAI

SMILES: O=C(/C=C/c1ccc(O)c(O)c1)NCCc1ccc(O)cc1 [NCT, N-trans caffeoyltyramine]
- HNF4α expression in liver (HNF4α fluorescence intensity) (HNF4α): reversed
- cytochrome C mRNA levels in primary human hepatocytes (cytochrome C mRNA): non-significant
- PPARGC1A(PGC1a) mRNA in primary human hepatocytes (PPARGC1A mRNA): increase
- TNFα mRNA level in cultured human hepatocytes (TNFα mRNA [1]): decrease
- TNFα level in livers of mice on HFD (TNFα mRNA [2]): decreased
- TNFα level in livers of mice on HFD (TNFα mRNA [2]; listed as Compound A): decrease
- Sirt1 mRNA in primary human hepatocytes (Sirt1 mRNA): reverse the depression
- PPARGC1A(PGC1a) protein level in mouse liver (PPARGC1A(PGC1a)): increase
- Sirt3 mRNA in mouse liver (Sirt3 mRNA): reverse the depression
- IL-6 mRNA level in cultured human hepatocytes (IL-6 mRNA): decrease
